According to patent US6716596B2, “Agents for replacement of NAD+/NADH system in enzymatic reactions” (The Regents of the University of California, priority 2001, dated 2004):
Where a name gives a salt, the structure may show the parent alone.

Tests used:
[1] = competitive regioselective substrate reduction experiments with rhodium catalyst precursor (2)
Experimental: In order to establish whether the σ-donating ability or the electron-withdrawing effect of the 3-substituent of the 1-benzylnicotinamide was the important parameter, several competitive substrate reduction experiments were performed.
For this purpose, the compound (1a) 1-benzylnicotinamide, was reduced with rhodium catalyst precursor (2) in the presence of its alternatively substituted derivatives, compounds (1e), substituted with —C(O)—CH3, (1g), substituted with (—CN), (1d), substituted with —C(S)NH2 or (1f), substituted with —C(O)OCH3, and their competitive reduction was determined.

[2] = biological target: T1, horse liver alcohol dehydrogenase (HLADH) (Equus caballus, UniProt P00327); assay: HLADH enzymatic chiral reduction of ketones with biomimic co-factor regeneration; format: biochemical
T1 construct: purchased Sigma
T1 sequence (P00327 2-375 limits assumed): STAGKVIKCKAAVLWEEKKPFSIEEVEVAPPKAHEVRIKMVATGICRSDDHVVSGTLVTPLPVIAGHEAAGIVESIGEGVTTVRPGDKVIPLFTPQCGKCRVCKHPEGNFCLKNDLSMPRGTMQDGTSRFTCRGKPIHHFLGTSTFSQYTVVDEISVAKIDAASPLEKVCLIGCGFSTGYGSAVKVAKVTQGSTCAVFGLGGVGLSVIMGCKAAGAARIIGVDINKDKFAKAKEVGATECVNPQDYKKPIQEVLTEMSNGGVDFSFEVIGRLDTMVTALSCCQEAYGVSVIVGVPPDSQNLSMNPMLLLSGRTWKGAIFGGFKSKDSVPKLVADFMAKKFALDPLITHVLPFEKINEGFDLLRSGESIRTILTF
Experimental: FIG. 7 presents structures of ketone substrates 12-15 used for biomimic chiral synthesis of corresponding alcohols. Conversion of the substrates 12-15 to their corresponding alcohols are expressed in % yield, and TOF in d^−1 and S-enantiomer excess (ee) are also shown for each conversion. Corresponding values obtained with NAD^+ are given in parenthesis. The S-enantiomeric excess (ee) was determined by GLC with a modified β-cyclodextrin capillary column.
[Cp*Rh(bpy)(H2O)]OTf2 (1.9 mg, 2.61×10^−3 mmol), sodium formate (17.8 mg, 261.69×10^−3 mmol), NAD^+ (8.1 mg, 11.23×10^−3 mmol) and HLADH (10 units) were placed in a 10 mL Schlenk flask, and Schlenk techniques were followed to deoxygenate the solid mixture.
Under positive argon pressure, 5 mL of potassium phosphate buffer (100 mM, pH=7.02, deoxygenated) and carbonyl substrate (83.58×10^−3 mmol, deoxygenated) were added via syringe. The reaction flask was immediately securely capped with a glass-stopper and shaken with a shaker in 30° C. water-bath. The reaction was monitored by gas chromatography (GC), equipped with a β-cyclodextrin column (Supelco, β-DEX-225), and the products were identified by comparing the retention time with the corresponding authentic chiral samples and were confirmed by GC-MS. The enantiomeric excess of the products was determined directly by their relative area in the chromatogram. The progress of the reaction was obtained by mixing the reaction aliquot with an internal standard (cyclohexanol in phosphate buffer), and then calibrating the measured relative area in the chromatogram with their corresponding response factors. The reaction was monitored for 24 hours.
The same procedure as described in section A was followed, except that NAD^+ was substituted with any one of the biomimic compounds of the invention.

Compound: NC(=O)c1ccc[n+](Cc2ccccc2)c1 [Compound 1a, 1-Benzylnicotinamide, Triflate Salt]
- times faster than the —C(O)CH3 analog (1e) ([1]; competitive reduction of (1a) with (1e)): 1.1 times
- times faster than the —CN analog (1g) ([1]; competitive reduction of (1a) with (1g)): 1.3 times
- recognition by HLADH as hydride catalyst of the chiral conversion [2]: recognizes
- turnover frequency of chiral ketone reduction ([2]; ketone (12) reduced by HLADH with co-factor regeneration, 24 hours): ~30 day⁻¹
